# Literature values as cited in patent US8633181B2, “Treatment of cutaneous hemangioma” (Rutgers, The State University of New Jersey, priority 2009, dated 2014).
# System: severe hemangioma of infants
# Conditions: systemic propranolol
smiles,measurement,value
CC(C)NCC(O)COc1cccc2ccccc12 (stereo not shown) [propranolol],time to significant shrinkage of the hemangioma after initiation,about 24 hours
